Patent US9963445B2, “Chemical compounds” (SYNGENTA PARTICIPATIONS AG, priority 2013, dated 2018)

Legend:
Type in all cases: in vivo
[1] = tested on: Abutilon theophrasti; test: Pre-emergence herbicidal activity, glasshouse pot test; settings: pre-emergence spray, rate 1000 g/ha, evaluated after 13 days, scale 0-5
Procedure, shortened: (§1)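 Damage was rated at 13 days from 0 (none) to 5 (total), in a glasshouse kept at 24/16 °C, 14 h light and 65% humidity with watering twice daily. The aqueous spray of active ingredient in 50:50 acetone/water plus 0.5% Tween 20 was applied to soil one day post-sowing, before emergence.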

[2] = tested on: Alopecurus myosuroides; test: as above; settings: pre-emergence spray, rate 1000 g/ha, evaluated after 13 days, scale 0-5
Procedure, shortened: as §1

[3] = tested on: Amaranthus retroflexus; test: as above; settings: pre-emergence spray, rate 1000 g/ha, evaluated after 13 days, scale 0-5
Procedure, shortened: as §1

[4] = tested on: Echinochloa crus-galli; test: as above; settings: pre-emergence spray, rate 1000 g/ha, evaluated after 13 days, scale 0-5
Procedure, shortened: as §1

[5] = tested on: Setaria faberi; test: as above; settings: pre-emergence spray, rate 1000 g/ha, evaluated after 13 days, scale 0-5
Procedure, shortened: as §1

[6] = tested on: zea mays; test: as above; settings: pre-emergence spray, rate 1000 g/ha, evaluated after 13 days, scale 0-5
Procedure, shortened: as §1

[7] = tested on: Abutilon theophrasti; test: Post-emergence herbicidal activity, glasshouse pot test; set-up: key: 0 = no damage to plant, 5 = total damage to plant; settings: Application post-emergence, rate 1000 g/ha, evaluated after 13 days
Procedure, shortened: (§2)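 After 8 days of glasshouse growth at 24/16 °C day/night, potted plants receive a foliar spray of the formulated compound (0.5% Tween 20 in acetone/water). They are then watered twice daily under unchanged conditions, and phytotoxicity is scored 0–5 after 13 days.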

[8] = tested on: Alopecurus myosuroides; test: as above; set-up: key: 0 = no damage to plant, 5 = total damage to plant; settings: Application post-emergence, rate 1000 g/ha, evaluated after 13 days
Procedure, shortened: as §2

[9] = tested on: Amaranthus retroflexus; test: as above; set-up: key: 0 = no damage to plant, 5 = total damage to plant; settings: Application post-emergence, rate 1000 g/ha, evaluated after 13 days
Procedure, shortened: as §2

[10] = tested on: Echinochloa crus-galli; test: as above; set-up: key: 0 = no damage to plant, 5 = total damage to plant; settings: Application post-emergence, rate 1000 g/ha, evaluated after 13 days
Procedure, shortened: as §2

[11] = tested on: Setaria faberi; test: as above; set-up: key: 0 = no damage to plant, 5 = total damage to plant; settings: Application post-emergence, rate 1000 g/ha, evaluated after 13 days
Procedure, shortened: as §2

[12] = tested on: zea mays; test: as above; set-up: key: 0 = no damage to plant, 5 = total damage to plant; settings: Application post-emergence, rate 1000 g/ha, evaluated after 13 days
Procedure, shortened: as §2

COC1=C(C)C(O)N(c2cc(C(C)(F)F)c(C)nn2)C1=O (stereo not drawn) [BI24]
ABUTH damage score, application pre-emergence [1]: 5 | ALOMY damage score, application pre-emergence [2]: 4 | AMARE damage score, application pre-emergence [3]: 5 | ECHCG damage score, application pre-emergence [4]: 4 | SETFA damage score, application pre-emergence [5]: 4 | ZEAMX damage score, application pre-emergence [6]: 3 | ABUTH herbicidal damage score [7]: 5 | ALOMY herbicidal damage score [8]: 4 | AMARE herbicidal damage score [9]: 5 | ECHCG herbicidal damage score [10]: 5 | SETFA herbicidal damage score [11]: 5 | ZEAMX herbicidal damage score [12]: 3

C#CC(C)(C)NC(=O)c1ccc(N2C(=O)C(OC)=C(C)C2O)nn1 (stereo not drawn) [BI27]
ABUTH damage score, application pre-emergence [1]: 4 | ALOMY damage score, application pre-emergence [2]: 2 | AMARE damage score, application pre-emergence [3]: 5 | ECHCG damage score, application pre-emergence [4]: 4 | SETFA damage score, application pre-emergence [5]: 4 | ZEAMX damage score, application pre-emergence [6]: 1 | ABUTH herbicidal damage score [7]: 5 | ALOMY herbicidal damage score [8]: 4 | AMARE herbicidal damage score [9]: 5 | ECHCG herbicidal damage score [10]: 5 | SETFA herbicidal damage score [11]: 5 | ZEAMX herbicidal damage score [12]: 4

COC1=C(C)C(O)N(c2cc(C)c(Cl)nn2)C1=O (stereo not drawn) [BI29]
ABUTH damage score, application pre-emergence [1]: 0 | ALOMY damage score, application pre-emergence [2]: 3 | AMARE damage score, application pre-emergence [3]: 3 | ECHCG damage score, application pre-emergence [4]: 3 | SETFA damage score, application pre-emergence [5]: 2 | ZEAMX damage score, application pre-emergence [6]: 1 | ABUTH herbicidal damage score [7]: 1 | ALOMY herbicidal damage score [8]: 2 | AMARE herbicidal damage score [9]: 5 | ECHCG herbicidal damage score [10]: 3 | SETFA herbicidal damage score [11]: 4 | ZEAMX herbicidal damage score [12]: 0

COC1=C(C)C(O)N(c2cc(C(C)(C)C)c(-c3ccc(F)nc3)nn2)C1=O (stereo not drawn) [BI30]
ABUTH damage score, application pre-emergence [1]: 5 | ALOMY damage score, application pre-emergence [2]: 4 | AMARE damage score, application pre-emergence [3]: 5 | ECHCG damage score, application pre-emergence [4]: 5 | SETFA damage score, application pre-emergence [5]: 5 | ZEAMX damage score, application pre-emergence [6]: 4 | ABUTH herbicidal damage score [7]: 5 | ALOMY herbicidal damage score [8]: 5 | AMARE herbicidal damage score [9]: 5 | ECHCG herbicidal damage score [10]: 5 | SETFA herbicidal damage score [11]: 5 | ZEAMX herbicidal damage score [12]: 4

COC1=C(C)C(O)N(c2cc(C(C)(C)C)c(N3CC(F)(F)C3)nn2)C1=O (stereo not drawn) [BI31]
ABUTH damage score, application pre-emergence [1]: 5 | ALOMY damage score, application pre-emergence [2]: 4 | AMARE damage score, application pre-emergence [3]: 5 | ECHCG damage score, application pre-emergence [4]: 4 | SETFA damage score, application pre-emergence [5]: 5 | ZEAMX damage score, application pre-emergence [6]: 3 | ABUTH herbicidal damage score [7]: 5 | ALOMY herbicidal damage score [8]: 5 | AMARE herbicidal damage score [9]: 5 | ECHCG herbicidal damage score [10]: 5 | SETFA herbicidal damage score [11]: 5 | ZEAMX herbicidal damage score [12]: 4

COC1=C(C)C(O)N(c2cc(C)c(-c3cnn(C)c3)nn2)C1=O (stereo not drawn) [BI33]
ABUTH damage score, application pre-emergence [1]: 0 | ALOMY damage score, application pre-emergence [2]: 0 | AMARE damage score, application pre-emergence [3]: 0 | ECHCG damage score, application pre-emergence [4]: 0 | SETFA damage score, application pre-emergence [5]: 0 | ZEAMX damage score, application pre-emergence [6]: 0 | ABUTH herbicidal damage score [7]: 0 | ALOMY herbicidal damage score [8]: 2 | AMARE herbicidal damage score [9]: 4 | ECHCG herbicidal damage score [10]: 2 | SETFA herbicidal damage score [11]: 2 | ZEAMX herbicidal damage score [12]: 1

COC1=C(OC)C(O)N(c2cc(C)c(OC)nn2)C1=O (stereo not drawn) [BK1]
ABUTH damage score, application pre-emergence [1]: 4 | ALOMY damage score, application pre-emergence [2]: 4 | AMARE damage score, application pre-emergence [3]: 5 | ECHCG damage score, application pre-emergence [4]: 4 | SETFA damage score, application pre-emergence [5]: 4 | ZEAMX damage score, application pre-emergence [6]: 2 | ABUTH herbicidal damage score [7]: 5 | ALOMY herbicidal damage score [8]: 4 | AMARE herbicidal damage score [9]: 5 | ECHCG herbicidal damage score [10]: 5 | SETFA herbicidal damage score [11]: 5 | ZEAMX herbicidal damage score [12]: 3

COC1=C(OC)C(O)N(c2ccc(C(F)(F)F)nn2)C1=O (stereo not drawn) [BK2]
ABUTH damage score, application pre-emergence [1]: 0 | ALOMY damage score, application pre-emergence [2]: 0 | AMARE damage score, application pre-emergence [3]: 0 | ECHCG damage score, application pre-emergence [4]: 0 | SETFA damage score, application pre-emergence [5]: 0 | ZEAMX damage score, application pre-emergence [6]: 0 | ABUTH herbicidal damage score [7]: 1 | ALOMY herbicidal damage score [8]: 1 | AMARE herbicidal damage score [9]: 1 | ECHCG herbicidal damage score [10]: 1 | SETFA herbicidal damage score [11]: 1 | ZEAMX herbicidal damage score [12]: 0
